The text below walks through data of article PMC3559828 (PLoS ONE, 2013).

One assay deals with T1, Rat α6/α3β4 nAChR (Rattus norvegicus, UniProt P04757+P12392+P43143).
T1 construct: expressed in transfected cells; host or cells: Xenopus oocytes injected with cRNA
Description: cell-based.

Another assay has as its target T2, Rat α6/α3β2β3 nAChR (Rattus norvegicus, UniProt P04757+P12390+P12391+P43143).
T2 construct: expressed in transfected cells; host or cells: Xenopus oocytes injected with cRNA
Nature of the assay: cell-based.

Another assay deals with T3, Rat α3β4 nAChR (Rattus norvegicus, UniProt P04757+P12392).
T3 construct: expressed in transfected cells; host or cells: Xenopus oocytes injected with cRNA
Nature of the assay: cell-based.

Another assay concerns the target T4, Rat α2β4 nAChR (Rattus norvegicus, UniProt P12389+P12392).
T4 construct: expressed in transfected cells; host or cells: Xenopus oocytes injected with cRNA
Nature of the assay: cell-based.

The next assay concerns the target T5, Rat α4β2 nAChR (Rattus norvegicus, UniProt P09483+P12390).
T5 construct: expressed in transfected cells; host or cells: Xenopus oocytes injected with cRNA
Description: cell-based.

In the next assay the target is T6, Rat α2β2 nAChR (Rattus norvegicus, UniProt P12389+P12390).
T6 construct: expressed in transfected cells; host or cells: Xenopus oocytes injected with cRNA
Description: cell-based.

The target in another assay is T7, Rat α9α10 nAChR (Rattus norvegicus, UniProt P43144+Q9JLB5).
T7 construct: expressed in transfected cells; host or cells: Xenopus oocytes injected with cRNA
Description: cell-based.

The target of the next assay is T8, Rat α4β4 nAChR (Rattus norvegicus, UniProt P09483+P12392).
T8 construct: expressed in transfected cells; host or cells: Xenopus oocytes injected with cRNA
Nature of the assay: cell-based.

Another assay has as its target T9, Rat α3β2 nAChR (Rattus norvegicus, UniProt P04757+P12390).
T9 construct: expressed in transfected cells; host or cells: Xenopus oocytes injected with cRNA
Description: cell-based.

A further assay has as its target T10, Rat α7 nAChR (Rattus norvegicus, UniProt Q05941).
T10 construct: expressed in transfected cells; host or cells: Xenopus oocytes injected with cRNA
Nature of the assay: cell-based.

For the next assay, the system named is α3β4 nAChR. The settings on record: cited from earlier work.
The next assay deals with GABAB receptors. The settings on record: cited from earlier work.
The test system of assay [1] is α9α10 nAChR. The settings on record: cited from earlier work.
The subject of another assay is α6/α3β2β3 nAChR. The settings on record: cited from earlier work.
Assay [2] addresses T11, α9α10 nAChR (Rattus norvegicus, UniProt P43144+Q9JLB5).
T11 construct: expressed in transfected cells; host or cells: Xenopus oocytes injected with cRNA
The assay is classed as cell-based.

Bridge positions count the residues as written; N and C are the ends. Peptide text beside a SMILES is read from it. Bounds are passed on as bounds.

T10 sequence (Q05941 23-502 limits assumed): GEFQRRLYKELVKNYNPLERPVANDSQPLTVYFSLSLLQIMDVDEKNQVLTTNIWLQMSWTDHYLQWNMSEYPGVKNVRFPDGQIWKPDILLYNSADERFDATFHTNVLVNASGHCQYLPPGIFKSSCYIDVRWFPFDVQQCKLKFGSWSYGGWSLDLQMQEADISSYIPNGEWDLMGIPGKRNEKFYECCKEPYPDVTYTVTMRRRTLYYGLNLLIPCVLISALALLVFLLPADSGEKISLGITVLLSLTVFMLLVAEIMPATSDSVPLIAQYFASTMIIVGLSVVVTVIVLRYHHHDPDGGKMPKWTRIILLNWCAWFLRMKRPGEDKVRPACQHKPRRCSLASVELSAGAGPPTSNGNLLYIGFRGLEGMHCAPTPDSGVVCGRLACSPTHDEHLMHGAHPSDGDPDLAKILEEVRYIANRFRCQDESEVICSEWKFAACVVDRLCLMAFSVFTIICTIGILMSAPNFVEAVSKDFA
T5 sequence (P09483 31-630 limits assumed): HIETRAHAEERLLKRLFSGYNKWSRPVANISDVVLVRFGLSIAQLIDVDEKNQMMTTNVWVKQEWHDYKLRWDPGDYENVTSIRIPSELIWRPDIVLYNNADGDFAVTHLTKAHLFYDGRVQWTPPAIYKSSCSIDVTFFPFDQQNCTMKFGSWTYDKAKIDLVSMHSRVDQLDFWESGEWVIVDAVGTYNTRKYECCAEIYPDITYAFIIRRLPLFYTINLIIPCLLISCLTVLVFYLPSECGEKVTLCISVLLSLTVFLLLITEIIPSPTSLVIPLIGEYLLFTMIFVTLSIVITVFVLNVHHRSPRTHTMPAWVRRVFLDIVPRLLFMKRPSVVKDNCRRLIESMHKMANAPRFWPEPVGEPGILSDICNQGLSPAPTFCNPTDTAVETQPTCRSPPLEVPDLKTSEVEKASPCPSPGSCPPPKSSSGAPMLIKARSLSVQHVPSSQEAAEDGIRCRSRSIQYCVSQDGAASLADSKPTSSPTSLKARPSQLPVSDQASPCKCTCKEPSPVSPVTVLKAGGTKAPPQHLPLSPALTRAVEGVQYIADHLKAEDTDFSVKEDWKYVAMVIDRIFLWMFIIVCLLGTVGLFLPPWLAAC
T5 sequence (P12390 25-500 limits assumed): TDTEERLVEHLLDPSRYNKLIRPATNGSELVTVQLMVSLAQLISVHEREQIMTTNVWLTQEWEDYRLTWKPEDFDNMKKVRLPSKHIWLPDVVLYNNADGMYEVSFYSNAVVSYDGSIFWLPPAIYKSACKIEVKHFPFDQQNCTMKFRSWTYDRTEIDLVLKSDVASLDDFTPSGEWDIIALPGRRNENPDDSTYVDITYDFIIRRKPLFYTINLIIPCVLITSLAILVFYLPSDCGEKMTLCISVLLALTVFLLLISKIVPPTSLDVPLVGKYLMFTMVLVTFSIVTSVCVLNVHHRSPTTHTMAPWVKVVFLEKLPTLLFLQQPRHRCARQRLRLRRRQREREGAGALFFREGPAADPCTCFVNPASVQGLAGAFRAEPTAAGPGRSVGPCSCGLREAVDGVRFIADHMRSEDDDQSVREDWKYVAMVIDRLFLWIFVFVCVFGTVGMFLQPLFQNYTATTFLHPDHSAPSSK
T7 sequence (P43144 26-479 limits assumed): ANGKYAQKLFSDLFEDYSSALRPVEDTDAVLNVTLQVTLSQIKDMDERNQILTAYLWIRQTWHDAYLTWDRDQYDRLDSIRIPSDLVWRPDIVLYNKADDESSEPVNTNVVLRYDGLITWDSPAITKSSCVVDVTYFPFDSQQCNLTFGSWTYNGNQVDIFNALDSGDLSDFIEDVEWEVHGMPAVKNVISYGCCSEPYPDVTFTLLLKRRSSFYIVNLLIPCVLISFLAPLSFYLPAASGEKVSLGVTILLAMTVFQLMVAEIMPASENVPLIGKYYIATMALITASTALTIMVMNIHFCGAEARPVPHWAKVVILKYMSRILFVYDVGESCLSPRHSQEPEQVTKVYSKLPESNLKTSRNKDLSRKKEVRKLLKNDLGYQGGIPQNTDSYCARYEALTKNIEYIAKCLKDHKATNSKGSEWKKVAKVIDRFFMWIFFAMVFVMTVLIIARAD
T7 sequence (Q9JLB5 25-447 limits assumed): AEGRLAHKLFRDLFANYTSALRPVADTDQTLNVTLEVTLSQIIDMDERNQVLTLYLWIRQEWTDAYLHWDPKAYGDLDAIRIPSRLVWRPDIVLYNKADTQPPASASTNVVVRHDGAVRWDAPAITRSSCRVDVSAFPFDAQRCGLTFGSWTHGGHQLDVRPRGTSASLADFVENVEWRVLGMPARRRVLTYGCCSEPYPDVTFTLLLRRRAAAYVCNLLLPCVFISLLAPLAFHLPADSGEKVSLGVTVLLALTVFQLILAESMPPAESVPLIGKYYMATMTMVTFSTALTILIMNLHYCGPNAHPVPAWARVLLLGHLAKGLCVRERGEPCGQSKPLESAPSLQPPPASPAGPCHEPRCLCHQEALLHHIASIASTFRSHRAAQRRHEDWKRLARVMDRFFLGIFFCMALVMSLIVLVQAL
T3 sequence (P04757 26-499 limits assumed): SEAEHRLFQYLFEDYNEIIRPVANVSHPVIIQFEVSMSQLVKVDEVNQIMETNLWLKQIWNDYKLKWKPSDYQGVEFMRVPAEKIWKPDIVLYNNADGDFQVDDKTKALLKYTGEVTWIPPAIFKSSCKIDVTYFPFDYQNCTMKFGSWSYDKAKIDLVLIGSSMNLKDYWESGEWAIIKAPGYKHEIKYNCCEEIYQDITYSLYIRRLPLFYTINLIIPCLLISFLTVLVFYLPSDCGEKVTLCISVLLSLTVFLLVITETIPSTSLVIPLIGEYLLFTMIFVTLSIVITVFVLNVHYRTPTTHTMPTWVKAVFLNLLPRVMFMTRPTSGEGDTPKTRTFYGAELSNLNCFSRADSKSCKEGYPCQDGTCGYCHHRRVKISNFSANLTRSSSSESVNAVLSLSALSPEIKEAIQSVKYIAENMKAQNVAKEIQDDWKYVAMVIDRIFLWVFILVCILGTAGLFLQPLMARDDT
T3 sequence (P12392 21-495 limits assumed): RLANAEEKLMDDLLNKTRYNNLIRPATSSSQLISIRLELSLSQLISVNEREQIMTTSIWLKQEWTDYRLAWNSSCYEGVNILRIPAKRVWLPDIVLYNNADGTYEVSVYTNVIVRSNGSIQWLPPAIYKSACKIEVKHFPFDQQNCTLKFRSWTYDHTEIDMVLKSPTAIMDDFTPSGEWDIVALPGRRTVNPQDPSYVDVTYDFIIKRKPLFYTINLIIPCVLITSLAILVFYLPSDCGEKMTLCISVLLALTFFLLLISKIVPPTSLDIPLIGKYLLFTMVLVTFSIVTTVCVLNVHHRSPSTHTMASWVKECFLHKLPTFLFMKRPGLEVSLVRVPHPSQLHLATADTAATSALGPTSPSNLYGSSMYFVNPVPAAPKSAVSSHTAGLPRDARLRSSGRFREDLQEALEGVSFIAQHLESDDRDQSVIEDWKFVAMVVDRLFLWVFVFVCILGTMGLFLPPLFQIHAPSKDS
T8 sequence (P09483 31-630 limits assumed): as the sequence (P09483 31-630 limits assumed) above
T8 sequence (P12392 21-495 limits assumed): as the sequence (P12392 21-495 limits assumed) above
T1 sequence (P43143+P04757 fused with the stated changes): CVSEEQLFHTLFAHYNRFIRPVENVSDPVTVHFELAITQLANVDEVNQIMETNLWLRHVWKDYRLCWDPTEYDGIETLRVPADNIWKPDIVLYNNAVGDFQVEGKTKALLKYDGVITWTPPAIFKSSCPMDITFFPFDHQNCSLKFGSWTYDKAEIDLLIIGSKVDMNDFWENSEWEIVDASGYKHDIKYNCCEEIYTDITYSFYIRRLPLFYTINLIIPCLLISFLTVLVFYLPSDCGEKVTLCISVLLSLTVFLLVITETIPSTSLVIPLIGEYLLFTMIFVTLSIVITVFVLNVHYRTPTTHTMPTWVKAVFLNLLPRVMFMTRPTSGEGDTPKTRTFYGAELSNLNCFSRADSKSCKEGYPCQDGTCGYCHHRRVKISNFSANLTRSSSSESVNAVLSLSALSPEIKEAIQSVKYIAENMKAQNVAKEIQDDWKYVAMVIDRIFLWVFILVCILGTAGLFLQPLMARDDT
T1 sequence (P12392 21-495): as the sequence (P12392 21-495 limits assumed) above
T9 sequence (P04757 26-499 limits assumed): as the sequence (P04757 26-499 limits assumed) above
T9 sequence (P12390 25-500 limits assumed): as the sequence (P12390 25-500 limits assumed) above
T6 sequence (P12389 28-511 limits assumed): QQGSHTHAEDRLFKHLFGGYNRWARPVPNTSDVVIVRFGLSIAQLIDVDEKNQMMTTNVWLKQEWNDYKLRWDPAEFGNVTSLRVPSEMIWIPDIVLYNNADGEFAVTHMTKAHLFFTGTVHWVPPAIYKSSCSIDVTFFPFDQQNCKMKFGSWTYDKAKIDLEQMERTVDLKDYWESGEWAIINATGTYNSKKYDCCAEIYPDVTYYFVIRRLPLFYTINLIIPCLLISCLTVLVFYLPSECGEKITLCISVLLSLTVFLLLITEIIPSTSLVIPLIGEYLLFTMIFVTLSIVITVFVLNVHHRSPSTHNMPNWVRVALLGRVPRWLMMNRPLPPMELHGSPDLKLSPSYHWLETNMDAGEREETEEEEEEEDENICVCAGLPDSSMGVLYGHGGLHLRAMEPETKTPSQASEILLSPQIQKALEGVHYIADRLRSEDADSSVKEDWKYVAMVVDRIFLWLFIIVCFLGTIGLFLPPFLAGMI
T6 sequence (P12390 25-500 limits assumed): as the sequence (P12390 25-500 limits assumed) above
T4 sequence (P12389 28-511 limits assumed): as the sequence (P12389 28-511 limits assumed) above
T4 sequence (P12392 21-495 limits assumed): as the sequence (P12392 21-495 limits assumed) above
T11 sequence (P43144 26-479 limits assumed): as the sequence (P43144 26-479 limits assumed) above
T11 sequence (Q9JLB5 25-447 limits assumed): as the sequence (Q9JLB5 25-447 limits assumed) above

In the case of `CC(C)C[C@@H]1NC(=O)[C@@H](NC(=O)[C@H](CCCNC(=N)N)NC(=O)[C@@H](N)C(C)C)CSSC[C@@H]2NC(=O)[C@H](CSSC[C@@H](C(=O)N[C@H](C(=O)N[C@@H](Cc3ccc(O)cc3)C(=O)N[C@@H](Cc3ccc(O)cc3)C(=O)N[C@H](C(=O)N[C@@H](CCC(N)=O)C(=O)N[C@@H](CO)C(=O)N[C@@H](CCCNC(=N)N)C(=O)N[C@@H](CCC(=O)O)C(=O)O)[C@@H](C)O)C(C)C)NC(=O)[C@H](CCCNC(=N)N)NC(=O)[C@H](CO)NC(=O)[C@H](Cc3c[nH]cn3)NC(=O)[C@H](CCCNC(=N)N)NC(=O)[C@H](C)NC(=O)[C@H](Cc3ccccc3)NC(=O)[C@H](CO)NC(=O)[C@@H]3CCCN3C(=O)CNC(=O)[C@H](CCCCN)NC(=O)[C@H](CCC(N)=O)NC2=O)NC(=O)[C@@H]2CCCN2C(=O)[C@@H]2CCCN2C(=O)[C@H](CCCNC(=N)N)NC(=O)[C@H](Cc2ccccc2)NC(=O)[C@H](CC(C)C)NC(=O)[C@H](CCCCN)NC(=O)[C@H](CC(N)=O)NC(=O)[C@@H]2CCCN2C(=O)[C@H](CCC(N)=O)NC(=O)[C@H](C)NC(=O)CNC(=O)[C@H](CO)NC(=O)[C@H](CCCCN)NC(=O)[C@H](CCC(=O)O)NC1=O` [αB-VxXXIVA [1], [3]] (H-VRCLEKSGAQPNKLFRPPCCQKGPSFARHSRCVYYTQSRE-OH; disulfide 3-20, 19-32), the IC50 at Rat α6/α3β4 nAChR, at Rat α6/α3β2β3 nAChR, on Rat α3β4 nAChR, against Rat α2β4 nAChR, against Rat α4β2 nAChR and against Rat α2β2 nAChR was > 30 µM each time. In addition, the IC50 against Rat α9α10 nAChR is 3.9 µM; against Rat α4β4 nAChR it was > 30 µM; on Rat α3β2 nAChR, > 30 µM; against Rat α7 nAChR, > 30 µM.
As for α-Conotoxin Vc1.1, the IC50 was 4.2 µM with α3β4 nAChR, 0.005 µM in the assay on α9α10 nAChR [1] and 0.14 µM in the assay with α6/α3β2β3 nAChR. The “activity at GABAB receptors” value in the assay on GABAB receptors is “activate GABAB receptors”.
For `CC(C)C[C@@H]1NC(=O)[C@@H](NC(=O)[C@H](CCCNC(=N)N)NC(=O)[C@@H](N)C(C)C)CSSC[C@@H](C(=O)N[C@H](C(=O)N[C@@H](Cc2ccc(O)cc2)C(=O)N[C@@H](Cc2ccc(O)cc2)C(=O)N[C@H](C(=O)N[C@@H](CCC(N)=O)C(=O)N[C@@H](CO)C(=O)N[C@@H](CCCNC(=N)N)C(=O)N[C@@H](CCC(=O)O)C(=O)O)[C@@H](C)O)C(C)C)NC(=O)[C@H](CCCNC(=N)N)NC(=O)[C@H](CO)NC(=O)[C@H](Cc2c[nH]cn2)NC(=O)[C@H](CCCNC(=N)N)NC(=O)[C@H](C)NC(=O)[C@H](Cc2ccccc2)NC(=O)[C@H](CO)NC(=O)[C@@H]2CCCN2C(=O)CNC(=O)[C@H](CCCCN)NC(=O)[C@H](CCC(N)=O)NC(=O)[C@@H]2CSSC[C@H](NC(=O)[C@@H]3CCCN3C(=O)[C@@H]3CCCN3C(=O)[C@H](CCCNC(=N)N)NC(=O)[C@H](Cc3ccccc3)NC(=O)[C@H](CC(C)C)NC(=O)[C@H](CCCCN)NC(=O)[C@H](CC(N)=O)NC(=O)[C@@H]3CCCN3C(=O)[C@H](CCC(N)=O)NC(=O)[C@H](C)NC(=O)CNC(=O)[C@H](CO)NC(=O)[C@H](CCCCN)NC(=O)[C@H](CCC(=O)O)NC1=O)C(=O)N2` [αB-VxXXIVA [1], [4]] (H-VRCLEKSGAQPNKLFRPPCCQKGPSFARHSRCVYYTQSRE-OH; disulfide 3-32, 19-20), the “block in the presence of Ba++ (in words)” value on α9α10 nAChR [2] is “did not potently block”. Also, the IC50 against Rat α3β4 nAChR, on Rat α4β2 nAChR, at Rat α9α10 nAChR and on Rat α7 nAChR was > 30 µM in each case. For the same molecule, the “activity at nAChRs (in words)” value on Rat α9α10 nAChR is “inactive”. Also, at Rat α9α10 nAChR, the “block of α9α10 current” value is given as “less than 15%”.
For the molecule `CC(C)C[C@@H]1NC(=O)[C@@H](NC(=O)[C@H](CCCNC(=N)N)NC(=O)[C@@H](N)C(C)C)CSSC[C@@H](C(=O)N[C@H]2CSSC[C@@H](C(=O)N[C@H](C(=O)N[C@@H](Cc3ccc(O)cc3)C(=O)N[C@@H](Cc3ccc(O)cc3)C(=O)N[C@H](C(=O)N[C@@H](CCC(N)=O)C(=O)N[C@@H](CO)C(=O)N[C@@H](CCCNC(=N)N)C(=O)N[C@@H](CCC(=O)O)C(=O)O)[C@@H](C)O)C(C)C)NC(=O)[C@H](CCCNC(=N)N)NC(=O)[C@H](CO)NC(=O)[C@H](Cc3c[nH]cn3)NC(=O)[C@H](CCCNC(=N)N)NC(=O)[C@H](C)NC(=O)[C@H](Cc3ccccc3)NC(=O)[C@H](CO)NC(=O)[C@@H]3CCCN3C(=O)CNC(=O)[C@H](CCCCN)NC(=O)[C@H](CCC(N)=O)NC2=O)NC(=O)[C@@H]2CCCN2C(=O)[C@@H]2CCCN2C(=O)[C@H](CCCNC(=N)N)NC(=O)[C@H](Cc2ccccc2)NC(=O)[C@H](CC(C)C)NC(=O)[C@H](CCCCN)NC(=O)[C@H](CC(N)=O)NC(=O)[C@@H]2CCCN2C(=O)[C@H](CCC(N)=O)NC(=O)[C@H](C)NC(=O)CNC(=O)[C@H](CO)NC(=O)[C@H](CCCCN)NC(=O)[C@H](CCC(=O)O)NC1=O` [αB-VxXXIVA [1], [2]] (H-VRCLEKSGAQPNKLFRPPCCQKGPSFARHSRCVYYTQSRE-OH; disulfide 3-19, 20-32), the IC50 on Rat α6/α3β4 nAChR was 30.1 µM; at Rat α6/α3β2β3 nAChR, 12.2 µM; on Rat α3β4 nAChR, > 30 µM; on Rat α2β4 nAChR it was > 30 µM; at Rat α4β2 nAChR it was > 30 µM; against Rat α2β2 nAChR, 23.4 µM. Also, the IC50 is 1.2 µM against Rat α9α10 nAChR, > 30 µM against Rat α4β4 nAChR, > 30 µM against Rat α3β2 nAChR and > 30 µM against Rat α7 nAChR.

The term IC50 denotes the point on the concentration scale where inhibition reaches its midpoint.
